Data as given in US10813909B2 (THE REGENTS OF THE UNIVERSITY OF CALIFORNIA, priority 2016, dated 2020).
Entries after “also recorded” stand apart in the source; their conditions may differ.

Tests used:
BIRC5 = experiment: Cardiac glycosides, BIRC5 expression in pancreatic cancer; format: cell-based
BIRC5 mRNA [1] = experiment: BIRC5 mRNA expression in PDCL5 in vitro; format: cell-based, human
MIA PaCa2 cells = experiment: Cell viability/proliferation, MIA PaCa2; format: cell-based, human; conditions: in vitro; metformin 500 μM, simvastatin 4 μM, digoxin 50 nM, alone or combined; paclitaxel 100 nM where added
BIRC5 mRNA [2] = experiment: BIRC5 mRNA expression in PDCL15 in vitro; format: cell-based, human
BIRC5 promoter = experiment: High-throughput drug screening with BIRC5 synthetic promoter; format: cell-based, human; conditions: high-throughput screening of FDA-approved drug libraries, MIA PaCa2 cells
Excerpt: FIG. 12 is a graph illustrating BIRC5 SP high-throughput (HTS) drug screening in MIA PaCa2 cells, in accordance with one or more embodiments of the invention;
Pancreatic ductal adenocarcinoma (PDAC) is one of the most deadly forms of cancer and almost all patients with PDAC succumb to this lethal disease within months of diagnosis. To fight against PDAC, we utilized the concept of an “actionable gene”, on which action can be taken to alter disease progression or guide choice of therapy. We have identified actionable gene, BIRC5, for PDAC using microarray data sets and our own RNA-Seq data of PDAC patient specimens. […] .

[3] = system: pancreatic cancer cell lines; experiment: Proliferation, viability and apoptosis of pancreatic cancer cell lines in vitro (line not specified); format: cell-based, human
AsPC1 cells = experiment: Cell viability, AsPC1; format: cell-based, human; conditions: in vitro
Capan2 cells = experiment: Cell viability, Capan2; format: cell-based, human; conditions: in vitro, with and without paclitaxel
PANC1 cells = experiment: Cell viability/proliferation, PANC1; format: cell-based, human; conditions: in vitro; metformin 500 μM, simvastatin 4 μM, digoxin 50 nM, alone or combined; paclitaxel 100 nM where added
[4] = system: HK2, LDHA, LDHB, ENO2, ENO1; experiment: Transcriptome analysis of glycolysis/TCA cycle/Warburg effect genes in pancreatic cancer cell lines; conditions: patient-derived and commercial pancreatic cancer cell lines
[5] = system: patient-derived pancreatic cancer cell line #15 (PDCL-15); experiment: Cell viability/proliferation (CellTiter-Glo, Gaussia luciferase), patient-derived line #15; format: cell-based, human; conditions: in vitro; metformin 500 μM, simvastatin 4 μM, digoxin 50 nM, alone or combined; paclitaxel 100 nM where added
[6] = system: patient-derived pancreatic cancer cell line #5 (PDCL-5); experiment: Cell viability/proliferation (CellTiter-Glo, Gaussia luciferase), patient-derived line #5; format: cell-based, human; conditions: in vitro; metformin 500 μM, simvastatin 4 μM, digoxin 50 nM, alone or combined; paclitaxel 100 nM where added
DUSP15 and RHOB = experiment: Cell death/apoptosis related gene expression in PDCL5 (RNA-Seq, real-time PCR); conditions: PDCL5 in vitro
[7] = mice; cited from earlier work

| Structure (SMILES) | BIRC5 expression in pancreatic cancer (BIRC5) | BIRC5 mRNA expression, PDCL #5 (BIRC5 mRNA [1]) | cell viability / proliferation, MIA PaCa2 (MIA PaCa2 cells) | BIRC5 mRNA expression, PDCL #15 (BIRC5 mRNA [2]) | other results |
| --- | --- | --- | --- | --- | --- |
| CC(=O)O[C@H]1C[C@H](O[C@H]2[C@@H](O)C[C@H](O[C@H]3[C@@H](O)C[C@H](O[C@H]4CC[C@@]5(C)[C@H](CC[C@@H]6[C@@H]5C[C@@H](O)[C@]5(C)[C@@H](C7=CC(=O)OC7)CC[C@]65O)C4)O[C@@H]3C)O[C@@H]2C)O[C@H](C)[C@H]1O[C@@H]1O[C@H](CO)[C@@H](O)[C@H](O)[C@H]1O [Lanatoside C] | inhibit BIRC5 expression | – | – | – | – |
| CC(C)n1c(/C=C/C(O)CC(O)CC(=O)O)c(-c2ccc(F)cc2)c2ccccc21 (centres unmarked) [fluvastatin] | – | suppress | suppresses | suppress | – |
| C[C@@H]1O[C@@H](O[C@H]2C[C@@H](O)[C@]3(CO)[C@H]4[C@H](O)C[C@]5(C)[C@@H](C6=CC(=O)OC6)CC[C@]5(O)[C@@H]4CC[C@]3(O)C2)[C@H](O)[C@H](O)[C@H]1O [Ouabain, ouabain] | inhibit BIRC5 expression | – | suppresses | – | – |
| CC[C@H](C)C(=O)O[C@H]1C[C@@H](C)C=C2C=C[C@H](C)[C@H](CC[C@@H]3C[C@@H](O)CC(=O)O3)[C@H]21 [Lovastatin, lovastatin] | – | suppress | suppresses | suppress | – |
| CN(C)C(=N)N=C(N)N [Metformin, metformin] | – | suppress | suppresses; also recorded: suppress | suppress | expression from the BIRC5 promoter (BIRC5 promoter): target BIRC5; cell proliferation / viability, pancreatic cancer cell lines [3]: suppresses; cell viability, AsPC1 (AsPC1 cells): suppress; cell viability, Capan2 (Capan2 cells): suppress; cell viability / proliferation, PANC1 (PANC1 cells): suppresses; also recorded: suppress; glycolysis / TCA cycle / Warburg effect related gene expression [4]: inhibitory effect; cell viability / proliferation, patient-derived pancreatic cancer cell #15 [5]: suppresses; also recorded: suppress; cell viability / proliferation, patient-derived pancreatic cancer cell #5 [6]: suppresses; also recorded: suppress; cell death/apoptosis related gene expression (DUSP15, RHOB) (DUSP15 and RHOB): do not have an effect |
| C[C@H]1O[C@@H](O[C@H]2[C@@H](O)C[C@H](O[C@H]3[C@@H](O)C[C@H](O[C@H]4CC[C@@]5(C)[C@H](CC[C@@H]6[C@@H]5C[C@@H](O)[C@]5(C)[C@@H](C7=CC(=O)OC7)CC[C@]65O)C4)O[C@@H]3C)O[C@@H]2C)C[C@H](O)[C@@H]1O [Digoxin, digoxin] | inhibit BIRC5 expression | suppress | suppresses; also recorded: suppress | suppress | expression from the BIRC5 promoter (BIRC5 promoter): target BIRC5; Lethal Dose (LD50) [7]: 4 mg/kg; cell viability, AsPC1 (AsPC1 cells): suppress; cell viability, Capan2 (Capan2 cells): suppress; cell viability / proliferation, PANC1 (PANC1 cells): suppresses; also recorded: suppress; cell viability / proliferation, patient-derived pancreatic cancer cell #15 [5]: suppresses; also recorded: suppress; cell viability / proliferation, patient-derived pancreatic cancer cell #5 [6]: suppresses; also recorded: suppress; cell death/apoptosis related gene expression (DUSP15, RHOB) (DUSP15 and RHOB): do not have an effect |
| C[C@]12CC[C@H](O)C[C@H]1CC[C@@H]1[C@@H]2CC[C@]2(C)[C@@H](C3=CC(=O)OC3)CC[C@]12O [Digitoxigenin] | inhibit BIRC5 expression | – | – | – | – |
| C[C@]12CC[C@H](O)C[C@H]1CC[C@@H]1[C@@H]2CC[C@]2(C)[C@@H](c3ccc(=O)oc3)CC[C@]12O [bufalin] | inhibit BIRC5 expression | – | – | – | – |
